Assays:
VAP-1 [1] = target: T1, VAP-1 (Homo sapiens, UniProt Q16853); test: SSAO (amine oxidase) activity of VAP-1 transfected cells, radiochemical [14C]-benzylamine and fluorometric Amplex Red H2O2 assays; type: cell-based; design: expressed in transfected cells; host or cells: Ax endothelial cells or CHO cells; details: for % of inhibition: VAP-1 transfected Ax endothelial or CHO cells, benzylamine substrate, 30 min pre-incubation at 37° C., agents at 1 mg/ml and 100 μg/ml (concentration not given), representative of 2 to 5 experiments; for effect on enzymatic (SSAO) activity of VAP-1, in words: VAP-1 transfected cells, summary of Table I
T1 sequence (Q16853 1-763): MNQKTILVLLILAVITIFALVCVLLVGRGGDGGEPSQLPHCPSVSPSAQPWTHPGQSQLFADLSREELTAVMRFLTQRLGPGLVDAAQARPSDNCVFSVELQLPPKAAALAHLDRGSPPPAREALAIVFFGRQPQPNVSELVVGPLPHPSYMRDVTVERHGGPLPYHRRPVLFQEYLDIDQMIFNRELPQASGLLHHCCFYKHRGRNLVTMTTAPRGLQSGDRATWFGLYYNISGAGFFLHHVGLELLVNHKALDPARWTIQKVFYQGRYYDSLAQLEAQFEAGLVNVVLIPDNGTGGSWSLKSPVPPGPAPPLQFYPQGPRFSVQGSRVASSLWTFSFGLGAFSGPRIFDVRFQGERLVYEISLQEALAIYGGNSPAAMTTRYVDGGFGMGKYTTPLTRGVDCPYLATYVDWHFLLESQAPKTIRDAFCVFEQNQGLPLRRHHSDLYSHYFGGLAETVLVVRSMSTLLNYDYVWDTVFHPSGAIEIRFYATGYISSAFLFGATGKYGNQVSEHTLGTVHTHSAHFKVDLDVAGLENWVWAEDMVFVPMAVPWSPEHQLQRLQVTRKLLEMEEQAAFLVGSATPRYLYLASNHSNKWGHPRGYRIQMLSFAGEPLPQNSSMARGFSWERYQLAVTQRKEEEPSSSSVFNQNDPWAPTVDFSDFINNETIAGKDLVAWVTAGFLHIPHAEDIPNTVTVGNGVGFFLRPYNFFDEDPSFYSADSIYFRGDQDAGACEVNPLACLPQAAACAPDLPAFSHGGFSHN
Procedure: Amine oxidase activity was assayed radiochemically using [7-^14C]-benzylamine hydrochloride (spec. act. 57 mCi/mmol, Amersham) as a substrate. In brief, the cells (VAP-1 transfected Ax endothelial cells or VAP-1 transfected CHO cells and their mock transfected controls) were seeded onto gelatin-coated 24-well tissue culture plates and allowed to reach confluence. Prior to experiments, the cells were rinsed twice with RPMI 1640 and pre-incubated 30 min at 37° C. in 0.3 ml RPMI-1640 medium containing amikacin, tobramycin, gentamicin, streptomicin or geneticin (1 mg/ml). The reaction was initiated by addition of 6 μmol/L [^14C]-benzylamine (40000 dpm) and terminated after 1 hour by citric acid. The aldehydes were extracted into toluene containing diphenyloxazole and the formation of [^14C]-labelled benzaldehyde was quantified by scintillation counting.
SSAO activity of the cells was also independently measured using Amplex Red reagent (10-acetyl-3,7-dihydroxyphenoxazine; Molecular Probes Europe BV), a highly sensitive and stable probe for H2O2. Cultured cells (VAP-1 transfected Ax endothelial cells or VAP-1 transfected CHO cells and their mock transfected controls) were rinsed with Krebs Ringer phosphate glucose (KRPG; 145 mM NaCl, 5.7 mM sodium phosphate, 4.86 mM KCl, 0.54 mM CaCl2, 1.22 mM MgSO4, 5.5 mM glucose, pH 7.35) and pre-incubated 30 min at 37° C. in 200 μl KRPG containing amikacin, tobramycin, gentamicin, netilmicin, streptomycin, geneticin, glucosamine, mannosamine, galactosamine, or puromycin (1 mg/ml and 100 μg/ml). Catalytic reaction was initiated by addition of benzylamine as substrates and H2O2-detecting mixture containing horseradish peroxidase (final concentration 0.8 U/ml) and Amplex Red reagent (60 μM). The plates were incubated for 1-2 hours at 37° C. in the final volume of 250 μl, the bathing medium was clarified by centrifugation and placed in aliquots (200 μl) into white non-phosphorescent microplates (Cliniplate). Fluorescence intensity of the samples was measured (excitation, 545 nm; emission, 590 nm; Tecan ULTRA fluoropolarometer) and H2O2 concentration was calculated from calibration curves generated by serial dilutions of either standard H2O2 or resorufin, the product of the Amplex Red reaction (Molecular Probes).

VAP-1 [2] = target: T1, VAP-1; test: Tobramycin serum concentration after intravenous injection in VAP KO+TG versus VAP KO mice (fluorescence polarization immunoassay); type: in vivo, mouse; design: expressed in transfected cells; host or cells: mTIEhVAP-1 transgenic / mouse VAP-1 knockout mice (VAP KO+TG), expression on vasculature; details: 3 mg/kg intravenously
Excerpt: The mTIEhVAP-1 line E35 mice expressing human VAP-1 on vasculature were crossed to VAP-1 knockout mice that were previously created by using conventional gene targeting techniques to replace the mouse VAP-1 gene with a nonfunctional mutant-allele. The mTIEhVAP-1 transgene, mouse VAP-1 mutant-allele and endogenous mouse VAP-1 allele were all identified by PCR screening of purified genomic DNA with specific primers and verified immunohistochemically with human and mouse VAP-1 antibodies.
These mice and VAP KO mice as controls received intravenously tobramycin 3 mg/kg and tobramycin concentration from serum was measured after 30 min, 1, 2 and 3 hours after injections using fluorescence polarization immunoassay.

Molecule | % of inhibition (VAP-1 [1]) [%] | effect on enzymatic (SSAO) activity of VAP-1, in words (VAP-1 [1]) | tobramycin concentration in serum, VAP KO+TG mice compared with VAP KO mice (VAP-1 [2]; at 2 and 3 hours, mice expressing human VAP-1 vs VAP KO mice) | difference in serum tobramycin concentration between VAP KO mice and VAP KO+TG mice (VAP-1 [2]; at 3 hours)
CCN[C@@H]1C[C@H](N)[C@@H](O[C@H]2OC(CN)=CC[C@H]2N)[C@H](O)[C@H]1O[C@H]1OC[C@](C)(O)[C@H](NC)[C@H]1O [Netilmicin, netilmicin] | 45 | diminished to variable extent |  | 
CN[C@@H]1[C@@H](O)[C@@H](O[C@@H]2[C@@H](O)[C@H](O[C@H]3O[C@H]([C@@H](C)O)[C@@H](O)[C@H](O)[C@H]3N)[C@@H](N)C[C@H]2N)OC[C@]1(C)O [Geneticin, geneticin] | 46 |  |  | 
N[C@H]1C(O)O[C@H](CO)[C@@H](O)[C@@H]1O (some centres unmarked) [Glucosamine, glucosamine] | 0 | did not significantly inhibit |  | 
N[C@H]1C(O)O[C@H](CO)[C@H](O)[C@@H]1O (some centres unmarked) [Galactosamine, galactosamine] | 12 | did not significantly inhibit |  | 
N[C@@H]1C(O)O[C@H](CO)[C@@H](O)[C@@H]1O (some centres unmarked) [Mannosamine, mannosamine] | 20 | did not significantly inhibit |  | 
NC[C@H]1O[C@H](O[C@H]2[C@H](O)[C@@H](O[C@H]3O[C@H](CO)[C@@H](O)[C@H](N)[C@H]3O)[C@H](N)C[C@@H]2N)[C@H](N)C[C@@H]1O [Tobramycin, tobramycin] | 78 | diminished to variable extent | lower concentrations | two fold
COc1ccc(C[C@H](N)C(=O)N[C@H]2[C@@H](O)[C@H](n3cnc4c(N(C)C)ncnc43)O[C@@H]2CO)cc1 [Puromycin, puromycin] | 59 | diminished to variable extent |  | 
[H]/N=C(/N)N[C@H]1[C@H](O)[C@@H](O)[C@H](O[C@@H]2O[C@@H](C)[C@](O)(C=O)[C@H]2O[C@@H]2O[C@@H](CO)[C@H](O)[C@@H](O)[C@@H]2NC)[C@@H](N/C(N)=N\[H])[C@@H]1O [Streptomicin, streptomycin] | 5 |  |  | 
NCC[C@H](O)C(=O)N[C@@H]1C[C@H](N)[C@@H](O[C@H]2O[C@H](CN)[C@@H](O)[C@H](O)[C@H]2O)[C@H](O)[C@H]1O[C@H]1O[C@H](CO)[C@@H](O)[C@H](N)[C@H]1O [Amikacin, amikacin] | 84 | diminished to variable extent |  | 
gentamicin | 46 | diminished to variable extent |  | 
